Assays:
Assay in all cases: relative viability (nuclei count vs DMSO), 5 days (fraction); higher = more cells survive
Sunitinib + Phenformin = compound: CCN(CC)CCNC(=O)c1c(C)[nH]c(/C=C2\C(=O)Nc3ccc(F)cc32)c1C [Sunitinib] + N=C(N)NC(=N)NCCc1ccccc1 [Phenformin] (partner 250 µM)
Procedure, shortened: (§1)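 Relative viability divides the nuclei count in treated wells by that in vehicle wells. Lung cancer cell lines were seeded in 1536-well plates, dosed by pin tool the next day, and fixed and stained after 5 days in one step with final 0.05% Triton X-100, 1% formaldehyde and 1 ug/ml Hoechst. Dosing was a single drug or a fixed anchor-drug dose plus five library-drug doses (not always all listed) in √10 steps, and values are medians of duplicate plates imaged at 4×.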

Sunitinib + Lapatinib = compound: CCN(CC)CCNC(=O)c1c(C)[nH]c(/C=C2\C(=O)Nc3ccc(F)cc32)c1C [Sunitinib] + CS(=O)(=O)CCNCc1ccc(-c2ccc3ncnc(Nc4ccc(OCc5cccc(F)c5)c(Cl)c4)c3c2)o1 [Lapatinib] (partner 2 µM)
Procedure, shortened: as §1

Sunitinib + Olaparib = compound: CCN(CC)CCNC(=O)c1c(C)[nH]c(/C=C2\C(=O)Nc3ccc(F)cc32)c1C [Sunitinib] + O=C(c1cc(Cc2n[nH]c(=O)c3ccccc23)ccc1F)N1CCN(C(=O)C2CC2)CC1 [Olaparib] (partner 8 µM)
Procedure, shortened: as §1

Sunitinib + Trametinib = compound: CCN(CC)CCNC(=O)c1c(C)[nH]c(/C=C2\C(=O)Nc3ccc(F)cc32)c1C [Sunitinib] + CC(=O)Nc1cccc(-n2c(=O)n(C3CC3)c(=O)c3c(Nc4ccc(I)cc4F)n(C)c(=O)c(C)c32)c1 [Trametinib] (partner 0.02 µM)
Procedure, shortened: as §1

| Cell Line | relative viability (Sunitinib + Phenformin; first compound 0.02 µM) | relative viability (Sunitinib + Phenformin; first compound 0.06325 µM) | relative viability (Sunitinib + Phenformin; first compound 0.2 µM) | relative viability (Sunitinib + Phenformin; first compound 0.6325 µM) | relative viability (Sunitinib + Phenformin; first compound 2 µM) | relative viability (Sunitinib + Lapatinib; first compound 0.02 µM) | relative viability (Sunitinib + Lapatinib; first compound 0.06325 µM) | relative viability (Sunitinib + Lapatinib; first compound 0.6325 µM) | relative viability (Sunitinib + Olaparib; first compound 0.02 µM) | relative viability (Sunitinib + Olaparib; first compound 0.06325 µM) | relative viability (Sunitinib + Olaparib; first compound 0.2 µM) | relative viability (Sunitinib + Olaparib; first compound 0.6325 µM) | relative viability (Sunitinib + Olaparib; first compound 2 µM) | relative viability (Sunitinib + Trametinib; first compound 0.02 µM) | relative viability (Sunitinib + Trametinib; first compound 0.06325 µM) | relative viability (Sunitinib + Trametinib; first compound 0.2 µM) | relative viability (Sunitinib + Trametinib; first compound 0.6325 µM) | relative viability (Sunitinib + Trametinib; first compound 2 µM) | relative viability (Sunitinib + Lapatinib; first compound 0.2 µM) | relative viability (Sunitinib + Lapatinib; first compound 2 µM) |
| --- | --- | --- | --- | --- | --- | --- | --- | --- | --- | --- | --- | --- | --- | --- | --- | --- | --- | --- | --- | --- |
| LCLC-97TM1 | 0.463 | 0.438 | 0.442 | 0.406 | 0.426 | 1.06 | 0.81 | 0.924 | 0.377 | 0.401 | 0.548 | 0.477 | 0.442 | 0.197 | 0.215 | 0.206 | 0.207 | 0.205 | – | – |
| NCI-H460 | 0.48 | 0.567 | 0.54 | 0.535 | 0.487 | 0.85 | – | 1.08 | 0.41 | 0.484 | 0.614 | 0.473 | 0.578 | 0.104 | 0.185 | 0.226 | 0.287 | 0.191 | 1.3 | 0.927 |
| HCC-366 | 0.559 | 0.624 | 0.644 | 0.599 | 0.544 | 1.04 | 1.17 | – | 0.343 | 0.355 | 0.482 | 0.449 | 0.42 | 0.313 | 0.407 | 0.382 | 0.389 | 0.339 | 1.33 | 1.07 |
| A-427 | 0.263 | 0.383 | 0.315 | 0.301 | 0.279 | 1 | 1.12 | 1.16 | 0.701 | 0.721 | 0.832 | 0.848 | 0.771 | 0.759 | 0.758 | 0.893 | 0.821 | 0.728 | 1.11 | 1.08 |
| NCI-H2170 | 0.474 | 0.398 | 0.436 | 0.408 | 0.367 | 0.313 | 0.264 | 0.268 | 0.593 | 0.571 | 0.651 | 0.605 | 0.535 | 0.905 | 0.915 | 1.05 | 0.927 | 0.921 | 0.271 | 0.243 |
| HCC-15 | 0.424 | 0.523 | 0.588 | 0.49 | 0.404 | 0.855 | 0.9 | 0.826 | 0.762 | 0.742 | 0.807 | 0.768 | 0.625 | 0.36 | 0.316 | 0.305 | 0.352 | 0.312 | 0.91 | 0.829 |
